From patent US10077261B2, “Imidazolin-5-one derivative useful as FASN inhibitors for the treatment of cancer” (Janssen Pharmaceutica NV, priority 2012, dated 2018)

What was measured:
[1] = target: T1, hFASN enzyme (full length) (Homo sapiens, UniProt P49327); test: Fatty Acid Synthase (FASN) inhibition scintillation proximity assay; assay type: biochemical; details: for inhibition at 10 µM: read-out: Human FASN % inhibition @ 10 μM, 10 μM test compound; for IC50: read-out: Human FASN pIC50 (converted)
T1 construct: 10 μL hFASN enzyme (full length, 300 ng, purified in house); made in house
In short: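 Compounds at 0.01–30 μM were mixed with 300 ng purified full-length enzyme in 100 mM KH2PO4 pH 7.5, 1 mM DTT. Substrates ³H-acetyl-CoA and malonyl-CoA were then converted, and bead addition stopped the reaction. Signal was normalised to low and high plate controls and fitted by 4-parameter nonlinear regression.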

A2780 ovarian cells [2] = test: A2780 ovarian cell proliferation assay in lipid reduced medium, with palmitate (MTT); assay type: cell-based; details: Homo sapiens, A2780, 96 h; read-out: pIC50 A2780 Ovarian Cell, With Palmitate (converted)
In short: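 Seeded cells were switched next day to lipid-reduced serum, exposed to compound and 25 μM palmitate complexed with fatty-acid-free BSA, and incubated 96 h. Proliferation was then determined by MTT absorbance at 544 nm, with a best-fit curve of signal against concentration.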

A2780 ovarian cells [3] = test: A2780 ovarian cell proliferation assay in lipid reduced medium, without palmitate (MTT); assay type: cell-based; details: Homo sapiens, A2780, 96 h; read-out: pIC50 A2780 Ovarian Cell, Without Palmitate (converted)
[4] = target: Fatty Acid Synthase Keto-reductase Domain (FASN KR) (Homo sapiens, UniProt P49327); test: Fatty Acid Synthase keto-reductase domain (FASN KR) inhibition, NADPH oxidation at 340 nm
Chain of Fatty Acid Synthase Keto-reductase Domain (FASN KR) (P49327 whole entry, the tested form may be a part): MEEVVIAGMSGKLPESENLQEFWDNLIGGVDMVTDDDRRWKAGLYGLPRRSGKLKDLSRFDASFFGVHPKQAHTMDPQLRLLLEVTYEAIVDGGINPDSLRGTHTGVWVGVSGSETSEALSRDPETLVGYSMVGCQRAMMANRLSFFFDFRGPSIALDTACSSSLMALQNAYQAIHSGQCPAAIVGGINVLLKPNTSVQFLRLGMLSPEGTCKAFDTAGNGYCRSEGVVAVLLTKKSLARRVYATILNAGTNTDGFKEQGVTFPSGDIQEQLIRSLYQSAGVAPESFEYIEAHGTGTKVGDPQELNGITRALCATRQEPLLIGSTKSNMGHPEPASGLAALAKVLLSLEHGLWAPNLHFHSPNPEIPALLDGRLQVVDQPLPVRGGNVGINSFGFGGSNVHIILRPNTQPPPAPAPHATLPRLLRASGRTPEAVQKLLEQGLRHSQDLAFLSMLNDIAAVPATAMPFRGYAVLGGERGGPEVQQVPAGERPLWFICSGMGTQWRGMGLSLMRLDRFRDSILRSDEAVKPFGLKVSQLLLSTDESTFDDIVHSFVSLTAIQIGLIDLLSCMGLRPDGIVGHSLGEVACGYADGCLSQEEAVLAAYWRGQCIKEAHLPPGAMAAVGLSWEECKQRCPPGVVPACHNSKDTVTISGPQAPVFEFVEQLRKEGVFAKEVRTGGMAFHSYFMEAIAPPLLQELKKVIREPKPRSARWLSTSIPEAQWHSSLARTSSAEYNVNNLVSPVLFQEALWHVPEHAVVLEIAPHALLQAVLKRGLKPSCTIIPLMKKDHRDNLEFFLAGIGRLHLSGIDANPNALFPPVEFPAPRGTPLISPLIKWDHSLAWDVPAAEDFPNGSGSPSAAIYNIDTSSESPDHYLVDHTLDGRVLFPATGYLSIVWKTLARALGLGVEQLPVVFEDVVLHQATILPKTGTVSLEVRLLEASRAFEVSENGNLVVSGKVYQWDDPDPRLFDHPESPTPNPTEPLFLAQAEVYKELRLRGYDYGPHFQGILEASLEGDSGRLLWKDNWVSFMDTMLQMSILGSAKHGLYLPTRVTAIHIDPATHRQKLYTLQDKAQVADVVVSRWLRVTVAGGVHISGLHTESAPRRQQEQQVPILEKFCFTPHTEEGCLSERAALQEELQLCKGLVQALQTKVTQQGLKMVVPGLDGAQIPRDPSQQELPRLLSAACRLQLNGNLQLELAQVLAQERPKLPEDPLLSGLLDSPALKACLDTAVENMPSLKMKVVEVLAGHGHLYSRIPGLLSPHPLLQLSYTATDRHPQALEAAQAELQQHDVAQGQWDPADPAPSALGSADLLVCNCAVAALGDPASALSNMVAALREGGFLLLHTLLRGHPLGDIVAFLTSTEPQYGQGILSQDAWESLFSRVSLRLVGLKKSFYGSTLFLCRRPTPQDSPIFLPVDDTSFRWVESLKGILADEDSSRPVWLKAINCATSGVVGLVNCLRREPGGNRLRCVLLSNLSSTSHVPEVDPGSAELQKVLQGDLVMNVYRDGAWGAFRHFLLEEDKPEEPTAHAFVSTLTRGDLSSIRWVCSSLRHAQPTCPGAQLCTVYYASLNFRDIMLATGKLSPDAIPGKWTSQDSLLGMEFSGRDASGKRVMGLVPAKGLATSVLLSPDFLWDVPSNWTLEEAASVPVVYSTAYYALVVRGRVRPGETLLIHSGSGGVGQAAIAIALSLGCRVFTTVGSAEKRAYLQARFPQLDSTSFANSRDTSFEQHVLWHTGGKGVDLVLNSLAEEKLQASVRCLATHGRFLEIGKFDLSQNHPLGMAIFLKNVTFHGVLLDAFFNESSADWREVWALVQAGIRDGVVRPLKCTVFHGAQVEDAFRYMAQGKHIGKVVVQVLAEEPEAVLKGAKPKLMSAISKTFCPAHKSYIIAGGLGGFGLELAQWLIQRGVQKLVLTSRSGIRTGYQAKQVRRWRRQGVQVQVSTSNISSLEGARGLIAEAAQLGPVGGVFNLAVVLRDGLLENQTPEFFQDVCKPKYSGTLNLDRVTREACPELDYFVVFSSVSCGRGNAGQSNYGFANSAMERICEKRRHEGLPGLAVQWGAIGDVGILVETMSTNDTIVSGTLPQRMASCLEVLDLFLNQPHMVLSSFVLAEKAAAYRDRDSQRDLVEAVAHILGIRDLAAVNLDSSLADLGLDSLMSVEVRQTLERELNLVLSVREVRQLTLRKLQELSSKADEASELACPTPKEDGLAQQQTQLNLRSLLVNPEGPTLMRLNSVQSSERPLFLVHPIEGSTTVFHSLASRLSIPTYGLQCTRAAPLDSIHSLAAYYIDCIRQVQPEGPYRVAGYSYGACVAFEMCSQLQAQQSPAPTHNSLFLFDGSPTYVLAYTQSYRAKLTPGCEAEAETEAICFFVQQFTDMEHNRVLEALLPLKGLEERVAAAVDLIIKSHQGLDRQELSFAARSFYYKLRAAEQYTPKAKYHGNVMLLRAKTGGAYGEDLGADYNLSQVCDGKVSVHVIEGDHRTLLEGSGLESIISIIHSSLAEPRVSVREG
Protocol: After 20 minutes incubation at room temperature the plate was measured again (T2).
The decrease in absorbance was calculated as (Absorbance before incubation T1)−(Absorbance following incubation T2).
A plot of Controlmin versus test compound concentration was fitted to a 4-parameter logistic curve using a non-linear least squares regression method.

T1 sequence (P49327 whole entry): as the sequence (P49327 whole entry, the tested form may be a part) above

| SMILES | inhibition at 10 µM [1] | IC50 [1] | IC50 (A2780 ovarian cells [2]) | IC50 (A2780 ovarian cells [3]) | IC50 [4] |
| --- | --- | --- | --- | --- | --- |
| Cc1cc(-c2ccc3sc(C)c(C)c3c2)ccc1C1=NC2(CC2)C(=O)N1C[C@@H]1CCN(C(=O)C2CC2)C1 [compound 283, (R)-6-((1-(cyclopropanecarbonyl)pyrrolidin-3-yl)methyl)-5-(4-(2,3-dimethylbenzo[b]thiophen-5-yl)-2-methylphenyl)-4,6-diazaspiro[2.4]hept-4-en-7-one] | 112% | 41.7 nM | > 10000 nM | ~1860 nM | 93.3 nM |
| COC(=O)N1CCC2(CC1)N=C(c1ccc(-c3ccc4[nH]ccc4c3)cc1)N(CC1CN(C(=O)C3CC3)C1)C2=O [compound 17, Methyl 3-{[1-(cyclopropylcarbonyl)azetidin-3-yl]methyl}-2-[4-(1H-indol-5-yl)phenyl]-4-oxo-1,3,8-triazaspiro[4.5]dec-1-ene-8-carboxylate] | 97% | 229 nM | > 10000 nM | 398 nM | 347 nM |
| Cc1cc2cc(-c3ccc(C4=NC5(CC5)C(=O)N4C[C@@H]4CCN(C(=O)C5CC5)C4)cc3C)ccc2o1 [compound 388, 6-{[(3R)-1-(Cyclopropylcarbonyl)pyrrolidin-3-yl]methyl}-5-[3-methyl-4-(2-methyl-1-benzofuran-5-yl)phenyl]-4,6-diazaspiro[2.4]hept-4-en-7-one] | 99% | 355 nM | > 10000 nM | ~2450 nM | 1100 nM |
| O=C(C1CC1)N1CC[C@@H](CN2C(=O)C3(CCCC3)N=C2c2ccc(-c3ccc4[nH]ccc4c3)cc2F)C1 [compound 845, (R)-3-((1-(cyclopropanecarbonyl)pyrrolidin-3-yl)methyl)-2-(2-fluoro-4-(1H-dinol-5-yl)phenyl)-1,3-diazaspiro[4.4]non-1-en-4-one] | 106% | 20 nM | > 10000 nM | 11 nM | 25.1 nM |
| O=C(C1CC1)N1CC[C@@H](CN2C(=O)C3(CC3)N=C2c2ccc(-c3ccc(-c4ccncc4)cc3)cc2)C1 [compound 235, (R)-6-((1-(cyclopropanecarbonyl)pyrrolidin-3-yl)methyl)-5-(4′-(pyridin-4-yl)-[1,1′-biphenyl]-4-yl)-4,6-diazaspiro[2.4]hept-4-en-7-one] | 111% | 23.4 nM | > 10000 nM | 10 nM | 45.7 nM |
| O=C(C1CC1)N1CCC(CN2C(=O)C3(CCCC3)N=C2c2ccc(-c3ccc4cnccc4c3)cc2)CC1 [compound 77, 3-{[1-(Cyclopropylcarbonyl)piperidin-4-yl]methyl}-2-(4-isoquinolin-6-ylphenyl)-1,3-diazaspiro[4.4]non-1-en-4-one] | 103% | 174 nM | > 10000 nM | 661 nM | 871 nM |
| Cc1cc(-c2ccc3cnccc3c2)ccc1C1=NC2(CCCC2)C(=O)N1C[C@@H]1CCN(C(=O)C2CC2)C1 [compound 74, 3-{[(3R)-1-(cyclopropylcarbonyl)pyrrolidin-3-yl]methyl}-2-(4-isoquinolin-6-yl-2-methylphenyl)-1,3-diazaspiro[4.4]non-1-en-4-one] | 114% | 22.4 nM | > 10000 nM | 8.71 nM | 60.3 nM |
| Cc1cc(-c2ccc3sccc3c2)ccc1C1=NC2(CC2)C(=O)N1C[C@@H]1CCN(C(=O)C2CC2)C1 [compound 279, (R)-5-(4-(benzo[d]thiophen-5-yl)-2-methylphenyl)-6-((1-(cyclopropanecarbonyl)pyrrolidin-3-yl)methyl)-4,6-diazaspiro[2.4]hept-4-en-7-one] | 107% | 28.2 nM | > 10000 nM | 407 nM | 44.7 nM |
| CN1CCC2(CC1)N=C(c1ccc(-c3ccc4[nH]ccc4c3)cc1)N(C[C@@H]1CCN(C(=O)C3CC3)C1)C2=O [compound 81, (R)-2-(4-(1H-Indol-5-yl)phenyl)-3-((1-(cyclopropanecarbonyl)pyrrolidin-3-yl)methyl)-8-methy-1,3,8-triazaspiro[4.5]dec-1-en-4-one] | 109% | 91.2 nM | > 6170 nM | 102 nM | 186 nM |
| Cc1cc(-c2ccc3[nH]ccc3c2)ccc1C1=NC2(CCCC2)C(=O)N1C[C@@H]1CCN(C(=O)C2CC2)C1 [compound 73, 3-{[(3R)-1-(Cyclopropylcarbonyl)pyrrolidin-3-yl]methyl}-2-[4-(1H-indol-5-yl)-2-methylphenyl]-1,3-diazaspiro[4.4]non-1-en-4-one] | 111% | 33.1 nM | > 10000 nM | ~28.8 nM | 64.6 nM |
| O=C(C1CC1)N1CC[C@@H](CN2C(=O)C3(CCCC3)N=C2c2ccc(-c3ccc(Cl)cc3)cc2)C1 [compound 82] | 105% | 214 nM | > 10000 nM | 3720 nM | 1200 nM |

The remaining lines, values ahead:

| inhibition at 10 µM [1] | IC50 [1] | IC50 (A2780 ovarian cells [2]) | IC50 (A2780 ovarian cells [3]) | IC50 [4] | SMILES |
| --- | --- | --- | --- | --- | --- |
| 107% | 85.1 nM | > 10000 nM | ~708 nM | 200 nM | O=C(C1CC1)N1CC[C@H](CN2C(=O)C3(CC3)N=C2c2ccc(-c3ccc4sccc4c3)cc2)C1 [compound 211, (S)-5-(4-(benzo[b]thiophen-5-yl)phenyl)-6-((1-(cyclopropanecarbonyl)pyrrolidin-3-yl)methyl)-4,6-diazaspiro[2.4]hept-4-en-7-one] |
| 89.2% | 407 nM | 6030 nM | 1580 nM | 1380 nM | Cn1cc(-c2ccc(-c3ccc(C4=NC5(CC5)C(=O)N4CC4CCN(C(=O)C5CC5)CC4)cc3)cc2)cn1 [compound 56, 6-{[1-(Cyclopropylcarbonyl)piperidin-4-yl]methyl}-5-[4′-(1-methyl-1H-p;yrazol-4-yl)biphenyl-4-yl]-4,6-diazaspiro[2.4]hept-4-en-7-one] |
| 92.5% | 537 nM | > 10000 nM | ~2400 nM | 1350 nM | O=C(C1CC1)N1CC[C@@H](CN2C(=O)C3(CCCC3)N=C2c2ccc(-c3cccc(-c4cc[nH]n4)c3)cc2)C1 [compound 70, 3-{[(3R)-1-(Cyclopropylcarbonyl)pyrrrolidin-3-yl]methyl}-2-[3′-(1H-pyrazol-3-yl)biphenyl-4-yl]-1,3-diazaspiro[4.4]non-1-en-4-one] |
| 97% | 178 nM | > 10000 nM | 1100 nM | 490 nM | O=C(C1CC1)N1CC(CN2C(=O)C3(CC3)N=C2c2ccc(-c3ccc4sccc4c3)c(F)c2)C1 [compound 404, 5-[4-(1-Benzothiophen-5-yl)-3-fluorophenyl]-6-{[1-(cyclopropylcarbonyl)azetidin-3-yl]methyl}-4,6-diazaspiro[2.4]hept-4-en-7-one] |
| 98.2% | 148 nM | > 10000 nM | 1230 nM | 302 nM | COC(=O)N1CCC2(CC1)N=C(c1ccc(-c3ccc4occc4c3)cc1)N(C[C@@H]1CCN(C(=O)C3CC3)C1)C2=O [compound 14, (R)-Methyl 2-(4-(benzofuran-5-yl)phenyl)-3-((1-(cyclopropanecarbonyl)pyrrolidin-3-yl)methyl)-4-oxo-1,3,8-triazaspiro[4.5]dec-1-ene-8-carboxylate] |
| 100% | 70.8 nM | > 10000 nM | 251 nM | 120 nM | Cn1ncc2ccc(-c3ccc(C4=NC5(CC5)C(=O)N4C[C@@H]4CCN(C(=O)C5CC5)C4)cc3)cc21 [compound 27, 6-{[(3R)-1-(Cyclopropylcarbonyl)pyrrolidin-3-yl]methyl}-5-[4-(1-methyl-1H-indazol-6-yl)phenyl]-4,6-diazaspiro[2.4]hept-4-en-7-one] |
| 102% | 117 nM | > 10000 nM | 776 nM | 355 nM | Cn1ncc2ccc(-c3ccc(C4=NC5(CCCC5)C(=O)N4C[C@@H]4CCN(C(=O)C5CC5)C4)cc3)cc21 [compound 34, 3-{[(3R)-1-(Cyclopropylcarbonyl)pyrrolidin-3-yl]methyl}-2-[4-(1-methyl-1H-indazol-6-yl)phenyl]-1,3-diazaspiro[4.4]non-1-en-4-one] |
| 101% | 309 nM | > 10000 nM | 6310 nM | 1350 nM | C=CC(=O)N1CC[C@@H](CN2C(=O)C3(CCN(Cc4ccccc4)CC3)N=C2c2ccc(-c3ccc4occc4c3)cc2)C1 [compound 90, 3-{[(3R)-1-Acryloylpyrrolidin-3-yl]methyl}-2-[4-(1-benzofuran-5-yl)phenyl]-8-benzyl-1,3,8-triazaspiro[4.5]dec-1-en-4-one] |
| 103% | 33.9 nM | 5130 nM | 58.9 nM | 45.7 nM | O=C(C1CC1)N1CC[C@@H](CN2C(=O)C3(CCCC3)N=C2c2ccc(-c3ccc4[nH]ccc4c3)cc2)C1 [compound 4, 3-{[(3R)-1-(Cyclopropylcarbonyl)pyrrolidin-3-yl]methyl}-2-[4-(1H-indol-5-yl)phenyl]-1,3-diazaspiro[4.4]non-1-en-4-one] |
